# In patent publication US20220002280A1, “COMPOUNDS AND METHODS OF USE” (Ferro Therapeutics, Inc., priority 2019, published 2022):
# Columns and labels:
# 786-O [1] = assay: Cell proliferation (Alamar Blue) assay, 786-O; assay type: cell-based, human; conditions: 786-O cells, 24 h treatment
# Method: (§1) A cell viability assay was performed to assess the potency of the compounds in human cancer cell lines 786-0 (renal cell carcinoma), SJSA-1 (osteosarcoma), and/or A431 (epidermoid carcinoma). Additional cell lines, such as pancreatic cancer cell lines (e.g., Panc 02.13, BxPC-3, Panc 12, Panc 02.03, Panc 6.03, PSN-1, HPAC, and Capan-1), prostate cancer cell lines (e.g., PC-3, DU145, 22Rv1, NCI-H660, BPH1, LNCaP, BM-1604, and MDA PCa 2b), etc., can be tested in a similar method.
# (§2) Cells (SJSA-1, 786-0 and/or A431) were seeded (5000 cells/100 μL/well) in 96-well tissue culture plate and incubated at 37° C./5% CO2 for 16-24 hours. The cells were then treated with compounds (25 μL of 5×). The compound concentrations were 10-0.0005 μM prepared in 3-fold serial dilutions with final DMSO concentration of 1%. The plates were then incubated for 24h at 37° C./5% CO2 in a moist environment. Then Alamar Blue™ reagent (final concentration 1×-12.5 μL) was added to each well and incubated for 1.5 hours at 37° C./5% CO2. The plates were read on fluorescence reader at 540 nm excitation and 590 nm emission wavelengths. The IC50 values were subsequently determined using a sigmoidal dose-response curve (variable slope) in GraphPad Prism® 5 software.
# SJSA-1 [2] = assay: Cell proliferation (Alamar Blue) assay, SJSA-1; assay type: cell-based, human; conditions: Homo sapiens, SJSA-1 cells, 24 h treatment
# Method: as §1, §2
# A431 = assay: Cell proliferation (Alamar Blue) assay, A431; assay type: cell-based, human; conditions: Homo sapiens, A-431, A431 cells, 24 h treatment
# Method: as §1, §2
# 786-O [3] = assay: GPX4 inhibition assay: Ferrostatin rescue, 786-O; assay type: cell-based; conditions: Homo sapiens, 786-0, 786-O cells
# Method: as §2
# (§3) Studies have shown that lipophilic antioxidants, such as Ferrostatin, can rescue cells from GPX4 inhibition-induced ferroptosis. For instance, mesenchymal state GPX4-knockout cells can survive in the presence of Ferrostatin, however, when the supply of Ferrostatin is terminated, these cells undergo ferroptosis (see, e.g., Viswanathan et al., Nature 547:453-7, 2017). […] Accordingly, the ability of a molecule to induce ferroptotic cancer cell death, and that such ability is admonished by the addition of Ferrostatin, is clear indication that the molecule is an GPX4 inhibitor.
# SJSA-1 [4] = assay: GPX4 inhibition assay: Ferrostatin rescue, SJSA-1; assay type: cell-based; conditions: Homo sapiens, SJSA-1 cells
# Method: as §2, §3
# [5] = Mouse IV pharmacokinetics; assay type: in vivo, Balb/c mice; conditions: male, Balb/c, plasma; Mouse IV-PK (5 mg/kg)
# From the text: Institutional Animal Ethical Committee (IAEC) of Jubilant Biosys (IAEC/JDC/2019/188R (for Mice) and IAEC/JDC/2019/189R (for Rat) nominated by CPCSEA (Committee for the Purpose of Control and Supervision of Experiments on Animals) approved the mice and rat pharmacokinetic experiments. Male Balb/c mice (˜6-8 weeks old with body weight range of 22-25 g) and male SD rats (6-8 weeks old with body weight range of 200-250 g) were procured from Vivo Biotech, Hyderabad, India. Animals were quarantined in Jubilant Biosys Animal House for a period of 7 days with a 12:12 h light: dark cycles, and prior to the study the animals were stratified as per body weight.
# A) Procedure for Mice: Intravenous, oral and intraperitoneal pharmacokinetics study was done at doses of 5, 20 and 10 mg/kg respectively at dose volume of 10 mL/Kg for PO and IP while 5 mL/kg for IV route. Sparse sampling was done and at each time point three mice were used for blood sampling (˜100 μL) were collected from retro-orbital plexus at 0.083 (Only for IV), 0.25, 0.5, 1, 2, 4, 8, 10 (only for PO) and 24 h. Blood samples collected in tubes containing K2.EDTA as anticoagulant and centrifuged for 5 min at 10,000 rpm in a refrigerated centrifuge (Biofuge, Heraeus, Germany) maintained at 4° C. for plasma separation.
# Group I (IV) received test compound intravenously by tail vein at 5 mg/Kg in solution formulation prepared using 30% Kolliphore EL in WFI; dose volume: 5 mL/Kg; strength: 1 mg/mL.
# Blood concentration-time data of test compound was analyzed by non-compartmental method using Phoenix WinNonlin Version 8.1.
# A549 = assay: Counter-screen in A549 (CellTiter Glo); assay type: cell-based, human; conditions: Homo sapiens, A549 cells, 96 hours
# Method: Selected compounds were also assayed (counter-screened) in a human lung cancer cell line, A549, a less sensitive cell line to GPX4 inhibitors, as a control to assess differential activity. Cells at a density of 800-2,000 cells/well were seeded in 96-well plates and incubated at 37° C. overnight. A series of nine different concentrations of compound stocks (500×) were created by 3-fold serial dilution in DMSO. These compounds were further diluted in culture media and then added to cells so that the final DMSO concentration was equal to 0.25% or less. After 96 hours of incubation, 50 μL of CellTiter Glo reagent (Promega) was added to each well and luminescence was measured after 10 minutes using EnVision (PerkinElmer). RSL3 (a prototype GPX4 inhibitor, also known as RSL-3) was used as a reference compound titrated from top concentration of up to 30 μM. All compounds were tested initially from 30 µM as the top concentration in duplicates (range of 4.6 nM-30 μM). […] Luminescence from cells treated with DMSO alone was set as Max and % of inhibition was calculated as follows: Inhibition %=(Max-Sample value)/Max*100. Data was analyzed using XL-fit software (ID Business Solutions Ltd.). IC50, relative IC50, or % of top inhibition was calculated.
# KP4 = assay: Cell viability in KP4 (Table 4); assay type: cell-based; conditions: Homo sapiens, KP-4; KP4 cells
# [6] = 2 μM Ferrostatin, read-out: 786-O (IC50, μM) 2 μM Ferrostatin
# [7] = without Ferrostatin, read-out: 786-O (IC50, μM) Without Ferrostatin
# [8] = without Ferrostatin, read-out: SJSA-1 (IC50, μM) Without Ferrostatin
# [9] = 2 μM Ferrostatin, read-out: SJSA-1 (IC50, μM) 2 μM Ferrostatin
Compound,"IC50 (786-O [1]; Homo sapiens, 786-0, 24 h)",IC50 (SJSA-1 [2]),IC50 (A431),IC50 (A549),further results
C#CC(=O)N1[C@@H](c2ccc(F)cc2)c2ccc(OC)cc2C[C@@H]1C [Compound 9],0.223 µM,0.436 µM,4.9 µM,–,IC50 (786-O [3]; [6]): > 10 µM; IC50 (786-O [3]; [7]): 0.223 µM; IC50 (SJSA-1 [4]; [8]): 0.436 µM
"C#CC(=O)N1[C@@H](CCCC)Cc2cc(OC)ccc2[C@@H]1c1ccc(F)cc1 [Compound 12, 1-((1S,3S)-3-butyl-1-(4-fluorophenyl)-6-methoxy-3,4-dihydroisoquinolin-2(1H)-yl)prop-2-yn-1-one]",0.014 µM,0.025 µM,3.5 µM,–,AUC [5]: 181 ng·h/mL; Cmax [5]: 882 ng/mL; Vd [5]: 19.5 L/kg; clearance [5]: 454 mL/min/kg; half-life [5]: 30 min
"COc1ccc2c(c1)C[C@H](C)N(C(=O)CCl)[C@H]2c1ccc(C(=O)NC2CC2)cc1 [Compound 5, 4-((1S,3S)-2-(2-chloroacetyl)-6-methoxy-3-methyl-1,2,3,4-tetrahydroisoquinolin-1-yl)-N-cyclopropylbenzamide]",–,–,–,–,IC50 (786-O [3]; [6]): > 10 µM; IC50 (SJSA-1 [4]; [9]): > 10 µM
COC(=O)c1ccc([C@@H]2c3sccc3C[C@H](C(=O)OC)N2C(=O)CCl)cc1 [Compound 43],–,–,–,10.3 µM,IC50 (KP4): 0.525 µM
COc1ccc2c(c1)C[C@H](C)N(C(=O)CCl)[C@@H]2c1ccc(N2CCOCC2)cc1 [Compound 46],–,2.56 µM,–,3.83 µM,–
COc1ccc2c(c1)C[C@H](C)N(C(=O)CCl)[C@H]2c1ccc(F)cc1 [Compound 8],0.181 µM,0.183 µM,7.9 µM,–,IC50 (786-O [3]; [6]): > 10 µM; IC50 (786-O [3]; [7]): 0.181 µM; IC50 (SJSA-1 [4]; [9]): > 10 µM; IC50 (SJSA-1 [4]; [8]): 0.183 µM
"C#CC(=O)N1[C@@H](c2ccc(C(=O)NC3CC3)cc2)c2ccc(OC)cc2C[C@@H]1C [Compound 4, N-cyclopropyl-4-((1S,3S)-6-methoxy-3-methyl-2-propioloyl-1,2,3,4-tetrahydroisoquinolin-1-yl)benzamide]",–,–,–,–,IC50 (786-O [3]; [6]): 5.73 µM; IC50 (SJSA-1 [4]; [9]): 3.56 µM
COc1cc2c(cc1OC)[C@@H](c1ccc(N3CCOCC3)cc1)N(C(=O)CCl)[C@@H](C)C2 [Compound 45],5.89 µM,> 3 µM,–,4.74 µM,–
COc1ccc2c(c1)C[C@H](C)N(C(=O)CCl)[C@H]2c1ccc(N2CCOCC2)cc1 [Compound 47],–,0.329 µM,–,6.58 µM,IC50 (786-O [1]): 0.259 µM
"COC(=O)c1ccc([C@@H]2c3ccccc3C[C@H](C(=O)OC)N2C(=O)CCl)cc1 [Compound 2, methyl (1R,3R)-2-(2-chloroacetyl)-1-(4-(methoxycarbonyl)phenyl)-1,2,3,4-tetrahydroisoquinoline-3-carboxylate]",0.742 µM,0.855 µM,8.7 µM,–,–
"CCCC[C@H]1Cc2cc(OC)ccc2[C@H](c2ccc(F)cc2)N1C(=O)CCl [Compound 11, 1-((1S,3S)-3-butyl-1-(4-fluorophenyl)-6-methoxy-3,4-dihydroisoquinolin-2(1H)-yl)-2-chloroethan-1-one]",0.016 µM,0.018 µM,> 10 µM,–,–
COC(=O)c1ccc([C@@H]2c3ccc(OC)cc3C[C@H](C(=O)OC)N2C(=O)CCl)cc1 [Compound 41],–,–,–,1.31 µM,IC50 (KP4): 0.042 µM
COC(=O)c1ccc([C@H]2c3sccc3C[C@H](C(=O)OC)N2C(=O)CCl)cc1 [Compound 42],–,–,–,5.05 µM,IC50 (KP4): 0.0618 µM
"COC(=O)c1ccc([C@H]2c3ccc(OC)cc3C[C@H](C)N2C(=O)CCl)cc1 [Compound 7, methyl 4-((1S,3S)-2-(2-chloroacetyl)-6-methoxy-3-methyl-1,2,3,4-tetrahydroisoquinolin-1-yl)benzoate]",0.137 µM,0.22 µM,7.8 µM,–,–
COc1cc2c(cc1OC)[C@H](c1ccc(N3CCOCC3)cc1)N(C(=O)CCl)[C@@H](C)C2 [Compound 44],0.592 µM,0.599 µM,–,6.58 µM,–
C#CC(=O)N1[C@@H](CCCC)Cc2cc(OC)ccc2[C@@H]1c1ccc(CNC23CC4CC(CC(C4)C2)C3)cc1 [Compound 99],0.002 µM,0.002 µM,2.77 µM,–,–
